# B1: VEGF-C: vascular endothelial growth factor C, ligand of VEGFR2 and VEGFR3 (protein, UniProt P49767 112-227, looked up)
# Vascular endothelial growth …: AHYNTEILKSIDNEWRKTQCMPREVCIDVGKEFGVATNTFFKPPCVSVYRCGGCCNSEGLQCMNTSTSYLSKTLFEITVPLSQGPKPVTISFANHTSCRCMSKLDVYRQVHSIIRR
# B2: FGF7: Recombinant FGF7 from Sigma (protein, UniProt P21781 32-194, looked up)
# Fibroblast growth factor 7: CNDMTPEQMATNVNCSSPERHTRSYDYMEGGDIRVRRLFCRTQWYLRIDKRGKVKGTQEMKNNYNIMEIRTVAVGIVAIKGVESEFYLAMNKEGKLYAKKECNEDCNFKELILENHYNTYASAKWTHNGGEMFVALNQKGIPVRGKKTKKEQKTAHFLPMAIT
# B3: VEGF-D: vascular endothelial growth factor D, ligand of VEGFR2 and VEGFR3 (protein, UniProt O43915 89-205, looked up)
# Vascular endothelial growth …: FAATFYDIETLKVIDEEWQRTQCSPRETCVEVASELGKSTNTFFKPPCVNVFRCGGCCNEESLICMNTSTSYISKQLFEISVPLTSVPELVPVKVANHTGCKCLPTAPRHPYSIIRR
# Experiments:
# Assay type in all cases: cell-based, rat
# [1] = tested on: NBT-II cells; experiment: Proliferation assay, whole cell number by electronic cell counter; set-up: reduction in whole cell number / reduction in cell number in the presence of FGF7: concentration or dose not given beside the values; details: for percent reduction in whole cell number ± standard deviation / proliferative effect of ligand in the absence of GAGs / reduction in whole cell number: no GAG; for proliferative effect of ligand in the absence of GAGs: ligand 10 ng/ml; for reduction in whole cell number: ligand alone; for reduction in whole cell number / reduction in cell number in the presence of FGF7: compared to untreated cells; for reduction in cell number in the presence of FGF7: ligand plus FGF7, no GAG
# Experimental: NBT-II cells were grown until confluence in 75 cm^2 flasks. Each flask was washed with 20 ml PBS and treated with 3 ml trypsin-EDTA at 37° C. for ˜15 minutes until cells completely detached. Cells were centrifuged for 3 minutes at 195×g. The supernatant was aspirated, and the cells were resuspended in 10 ml media. Cell density was measured using an electronic cell counter, and the suspension was diluted to 50,000 cells/ml. The suspension was plated 1 ml/well into 24-well tissue culture plates. After a 24 hour incubation in a 5% CO2, 37° C. humidified incubator, the media was aspirated, the wells were washed with serum free media, and the cells were supplemented with media containing 0.1% FBS and incubated for 24 hours. Cells were sequentially treated with antibodies, GAGs and growth factors as appropriate. Sodium chlorate was added at 50 mM [30]. Antibodies to VEGFR2 or VEGFR3 were added to yield a final dilution of 1:100. All GAGs were initially added over a range of concentrations from 1 ng/ml to 100 μg/ml. Heparin, UDS and DS DT were subsequently added at 1 μg/ml unless otherwise noted. FGF1, FGF2, FGF7 and VEGF were added at 10 ng/ml unless otherwise noted. Cells were then incubated for 72 hours. Wells were then washed twice with PBS and treated with 0.5 ml trypsin-EDTA/well and incubated for 10 minutes at 37° C. Whole cell number was determined using an electronic cell counter.
# [2] = tested on: VEGF-C; experiment: Whole cell ELISA for VEGF-C
# Experimental: (§1) ELISA was performed using whole cells to quantify relative levels of kinase activity. NBT-II cells were grown until confluence in 75 cm^2 flasks. Each flask was washed with 20 ml PBS and treated with 3 ml trypsin-EDTA at 37° C. for 3-5 minutes, until cells detached. Cells were centrifuged for 3 minutes at 195×g. The supernatant was aspirated, and the cells were resuspended in 10 ml media. The cell density was measured using an electronic cell counter, and the suspension was diluted to 50,000 cells/ml. 100 mm dishes were supplemented with 10 ml cell suspension per dish. After a 24 hour incubation, the media was aspirated, the dishes washed with serum free media, and the cells supplemented with media containing 0.1% FBS. After a 24 hour incubation, dishes were treated with PBS, 10 μg/ml heparin or 10 μg/ml DS DT. […] Cells were incubated for 30 minutes (for Erk1, Erk2, phosphor-Erk1/2, Mek1, Mek2, phospho-Mek1/2, Akt1/2 and phospho-Akt1/2/3) or 24 hours (for VEGF, VEGF-C and VEGF-D). Media were aspirated and cells were homogenized per manufacture instructions. Total protein concentration was determined by Bradford assay. […] The reaction was quenched with 3 M sulfuric acid, and the plates were analyzed using a UV plate reader at 450 nm. Data were quantified by comparing to a standardized curve with varying concentrations of protein from untreated cells.
# [3] = tested on: VEGF-D; experiment: Whole cell ELISA for VEGF-D; details: FGF2 in the presence of PBS, heparin or DS DT, 24 hours
# Experimental: as §1
# [4] = tested on: VEGFR3; experiment: Whole cell ELISA for VEGFR3; details: addition of ligand, 24 hours
# Experimental: (§2) ELISA was performed using whole cells to quantify relative levels of kinase activity. NBT-II cells were grown until confluence in 75 cm^2 flasks. Each flask was washed with 20 ml PBS and treated with 3 ml trypsin-EDTA at 37° C. for 3-5 minutes, until cells detached. Cells were centrifuged for 3 minutes at 195×g. The supernatant was aspirated, and the cells were resuspended in 10 ml media. The cell density was measured using an electronic cell counter, and the suspension was diluted to 50,000 cells/ml. 100 mm dishes were supplemented with 10 ml cell suspension per dish. After a 24 hour incubation, the media was aspirated, the dishes washed with serum free media, and the cells supplemented with media containing 0.1% FBS. After a 24 hour incubation, dishes were treated with PBS, 10 μg/ml heparin or 10 μg/ml DS DT. Subsequently, cells were treated with 10 ng/ml FGF7, 10 ng/ml VEGF or both. Cells were incubated for 30 minutes (for Erk1, Erk2, phosphor-Erk1/2, Mek1, Mek2, phospho-Mek1/2, Akt1/2 and phospho-Akt1/2/3) or 24 hours (for VEGF, VEGF-C and VEGF-D). […] Total protein concentration was determined by Bradford assay. […] The reaction was quenched with 3 M sulfuric acid, and the plates were analyzed using a UV plate reader at 450 nm. Data were quantified by comparing to a standardized curve with varying concentrations of protein from untreated cells.
# [5] = tested on: phospho-Akt1/2/3 (Thr 308); experiment: Whole cell ELISA for phospho-Akt1/2/3 (Thr 308); details: ligand in the presence of PBS (no GAG)
# Experimental: as §2
# [6] = FGF7: ligand (10 ng/ml) or PBS plus FGF7 at 10 ng/ml
Molecule,"percent reduction in whole cell number ± standard deviation [1, 6] [%]",percent reduction in whole cell number ± standard deviation ([1]; PBS: ligand at 10 ng/ml alone) [%],proliferative effect of ligand in the absence of GAGs [1],reduction in whole cell number [1] [%],reduction in cell number in the presence of FGF7 [1] [%],VEGFR3 production [4],also measured
"FGF1: Recombinant FGF1, gift from Amgen",18.0 ± 2.6,5.4 ± 8.3,did not induce significant proliferative effects,,,,
"FGF2: Recombinant human FGF2, gift from Scios",30.4 ± 8.7,18.3 ± 5.0,reduced whole cell number,,,,"production of VEGF-C ([2]; FGF2 in the presence of PBS, heparin or DS DT, 24 hours): did not alter; production of VEGF-D [3]: did not alter"
VEGF,30.1 ± 7.0,19.8 ± 4.5,reduced whole cell number,19.8±4.5,30.1±7.0,not,"VEGF-C levels ([2]; ligand over 24 hours, regardless of GAG used): increased"
B1,,,,13.4±8.7,5.9±5.0,,
B2,14.1 ± 2.5,,,14.1±2.5,,increase,"increase in whole cell number ([1]; FGF7 alone, cells treated with 50 mM sodium chlorate): 28.4±11.8%; concentration eliciting maximal effect on cell growth ([1]; dose response, no sodium chlorate, effect constant through 100 ng/ml): 5 ng/mL; concentration at which maximal proliferative effect is achieved ([1]; in the presence of 50 mM sodium chlorate): 10 ng/mL; reduction of phosphorylation of Akt1/2/3 (Thr 308) [5]: ~20%"
B3,,,,16.2±10.8,34.5±1.5,,
